Assay results: US11464840B2, “Universal non-classical MHC I vaccines: HLA-E-restricted antigenic peptides as universal vaccines to treat allergy, inflammation, autoimmune and infectious diseases, and cancers” (priority 2019, dated 2022)
Several values for one entry are separate records, joined by “and”; a condition that tells them apart may be missing. Equal values may be shown once. Ends that are not written are not given here.

Assays:
Derlin-1 mRNA [1] = experiment: Derlin-1 mRNA knockdown by siRNA in monocyte-derived dendritic cells (qPCR, ΔΔCt); assay type: cell-based, human; conditions: for Derlin-1 mRNA knockdown (KD): MODC
Description: (§1) Table 1: Summary of Derlin-1 Knockdowns with Various siRNAs. Cells transfected in 12 well plate at 60%-80% confluency. one ul Viromer blue was used per 1 ml final volume. Cells were lysed via centrifugation and resuspended in TRI reagent at time points of either 6 h, 24 h, and 48 h. Lysates were split for both protein verification and qPCR. Knockdowns are estimated using the ΔΔCt method. […] Anti-Derlin-1 siRNA was designed using MITs website (sirna.wi.mit.edu) and siRNA design software (dharmacon.horizondiscovery.com/rnai/sirna). SiRNA were chosen based on the criteria that they would bind no more than 15 nucleotides on off-target mRNA and that they would be capable of knockdown for all four of the Derlin-1 mRNA isoforms. Additionally, siRNAs with 40-60% GC content, no more than 3 identical nucleotides in a row, and 3′ UU overhangs were used. The first siRNA (SEQ ID NO: 65, 5′-[…]-3′) was purchased from TriLink Biotechnologies and the second (SEQ ID NO: 66, 5′-[…]-3′) was purchased from Horizon Discovery. A third, modified siRNA with sequence 5′-SEQ ID NO: 67, O′me/G/O′me/[…]-3′ and DNA bases on the 1st and 8th nucleotide of the antisense strand was also designed and purchased from Horizontal Discovery. Scramble siRNAs were purchased from Horizontal Discovery (D-001810-10-05, ON-TARGET plus Non-targeting Pool).
(§2) Derlin-1 forms an integral part of the […] machinery required for transporting classical MHCI, e.g., HLA-A, -B, -C for proteasome degradation. […] In contrast, the protein band of Derlin-1 is entirely missing in Derlin-1 siRNA-treated MoDCs. Transfection of the primary cells were performed using PEI reagents (Viromer Blue vs. Viromer Red). The embodiment of the invention is three-fold. One aspect of the embodiment resides in treating APC with Derlin-1 RNA interference to prevent the generation of endogenous leader peptide as well as to cause dissociation of the HLA-E bound endogenous leader peptides so that Derlin-1-treated APC can be fully loaded with the HLA-E vaccines in the presence of the second costimulatory signal for immune induction.

Derlin-1 mRNA [2] = experiment: Derlin-1 mRNA knockdown by siRNA in T2 cells (qPCR, ΔΔCt); assay type: cell-based, human; conditions: for Derlin-1 mRNA knockdown (KD): 6 Hours
Description: as §1, with “Pool). […]” for “Pool).”

Derlin-1 mRNA [3] = experiment: Derlin-1 mRNA knockdown by siRNA in B721.221 cells (qPCR, ΔΔCt); assay type: cell-based, human; conditions: 6 hours
Description: as §1, with “Pool). […]” for “Pool).”

Derlin-1 = Derlin-1 knockdown protein verification by Western blot in MoDCs; assay type: cell-based, human
Source text: FIG. 9. Derlin-1 siRNA knocked down Derlin-1 translation in dendritic cells and B and T cell tumors by western blots. (A) Comparison of two different PEI reagent. Viromer blue vs Viromer red with respect to Cy3-labeled siRNA (B) and toxicity (C). Derlin-1 Knockdown Protein Verification by Western Blot (A). Confirms the knockdown of protein levels in MoDCs by Derlin-1 siRNA #2. For Lanes 1, 2, 5, and 6, the respective knockdowns were 49%, 57%, 67%, and 72%. Scramble included at concentration of 25 nM in wells (3) and (7). Wells (4) and (8) contain RPMI medium only. Mouse Anti-Derlin-1 mAb added at concentration of 1:1000 and Goat Anti-mouse IgG1 added at 1:10,000. (B) Transfection Ability of Viromer red/blue vs Lipofectamine RNAiMax. TAP-deficient T2-cells transfected with cy3-conjugated siRNA at 10 nM using manufacturer's recommended protocol for each reagent. Cells were stained, fixed, and detected 24 hours after transfection. PE laser was used to detect cells on BD LSR II. A shift to the right indicates a more efficient transfection reagent. (C) Cytotoxicity of Viromer RED/BLUE vs Lipofectamine RNAiMax. Extracellular staining of T2 cells with Annexin V was used to determine the number of cells undergoing active apoptosis after transfection with each reagent. BV421 laser was used to detect cells on BD LSR II. Cells were stained, fixed, and detected 24 hours after transfection.
as §2

HLA-E = experiment: Surface HLA-E expression in immature MoDC cells (FACS); assay type: cell-based, human; conditions: 100 nM SR11237, 100 nM Bexarotene or Interferon-β 1,000 U, 4 days
Description: FIG. 5. […] MoDCs were then collected and stained with fluorescence-conjugated antibody; APC-conjugated anti-CD83 (Biolegend) and PE-conjugated HLA-E (Biolegend) followed by fixation with 2% paraformaldehyde. Phenotype and HLA-E expression of MoDCs were performed by using a FACS, LRSII flow cytometry and the data were processed by using the Flowjo software.

HLA-G [4] = experiment: Surface HLA-G expression in immature MoDC cells (FACS); assay type: cell-based, human; conditions: 100 nM SR11237, 100 nM Bexarotene or Interferon-β 1,000 U, 4 days
HLA-G [5] = experiment: Surface HLA-G expression of CD8 T cells co-cultured with peptide-pulsed MoDCs (FACS); assay type: cell-based, human; conditions: immature and mature MoDC pulsed with A2 peptides of IgE epitope, SR11237 100 nmol/L, co-culture 5 days
Description: FIG. 7. Modulation of HLA-G by RXR agonist. Surface HLA-G expression of CD8 T cells was observed induced by RXRα agonist, SR11237 (100 nmol/L)-treated immature (A) and mature (B) MoDCs in presence of A2 mix peptides (Biomatik). MoDCs isolated from A2 type of PBMCs, were cultured in 10% FBS RPMI with 200 U/ml IL-4 and 100 U/ml GM-CSF for 5 days as immature MoDCs and then proceeded for maturation with addition of cytokines cocktail containing TNFα (10 ng/ml), PGE2 (1 μg/ml), IL-6 (150 ng/ml) and IL-1β (5 ng/ml) (Biolegend) for another two days. Both mature and immature MoDC were incubated with SR11237 for 2 days and pulsed with A2 peptides of IgE epitope for 4 hr. Then MoDCs were co-cultured in anti-CD3 (10 μg/ml) coated plate for 5 days with T cells isolated from PBMCs by adhering PBMC to 100×20 mm plate and collecting suspended cells. Cells were then collected and stained with Alex Fluor 488-conjugated human CD8 and PE-Cy 7-conjugated human HLA G followed by fixation with 2% paraformaldehyde. Phenotype and HLA G expression of T cells were performed by using a FACS, LRSII flow cytometry, data were processed as describe above.

the three HLA-E preps [6] = experiment: ELISA: renatured complex captured on anti-HLA-E coated plate, bound biotinylated peptide detected with HRP-avidin; peptide at 0.1 µg/ml
the three HLA-E preps [7] = experiment: ELISA: renatured complex captured on anti-HLA-E coated plate, bound biotinylated peptide detected with HRP-avidin; peptide at 1.0 µg/ml

“5′-GGACUUGGGAGGAAGAAAUUU-3′ (listed as RNA, chemistry not given here; listed as Homo sapiens) [Derlin siRNA #2]” was tested, and the “Derlin-1 mRNA knockdown (KD)” value (Derlin-1 mRNA [1]; 25 nM siRNA, Day 1) was 49%, the “Derlin-1 mRNA knockdown (KD)” value (Derlin-1 mRNA [1]; 25 nM siRNA, Day 2) was 67% and the “Derlin-1 mRNA knockdown (KD)” value (Derlin-1 mRNA [1]; 50 nM siRNA, Day 1) was 57%. The “Derlin-1 mRNA knockdown (KD)” value (Derlin-1 mRNA [1]; 50 nM siRNA, Day 2) was 72%, the “effectiveness in reducing Derlin-1 mRNA levels, compared among siRNAs” value (Derlin-1 mRNA [1]; monocyte-derived dendritic cells) was “most effective” and the “Derlin-1 mRNA knockdown (KD)” value (Derlin-1 mRNA [2]; T2, 2.5 nM siRNA) was 62%. For the same molecule, the “Derlin-1 mRNA knockdown (KD)” value (Derlin-1 mRNA [2]; T2, 5 nM siRNA) was 43%, the “Derlin-1 mRNA knockdown (KD)” value (Derlin-1 mRNA [2]; T2, 10 nM siRNA) was 34% and the “effectiveness in reducing Derlin-1 mRNA levels, compared among siRNAs” value (Derlin-1 mRNA [2]; T2 cells) was “most effective”. The “Derlin-1 mRNA knockdown (KD)” value (Derlin-1 mRNA [3]; B721.221, 5 nM siRNA) was 52%, the “Derlin-1 mRNA knockdown (KD)” value (Derlin-1 mRNA [3]; B721.221, 10 nM siRNA) was 50% and the “Derlin-1 knockdown, FIG. 9 Western blot” value (Derlin-1; Lane 1) was 49%. The “Derlin-1 knockdown, FIG. 9 Western blot” value (Derlin-1; Lane 2) was 57%, the “Derlin-1 knockdown, FIG. 9 Western blot” value (Derlin-1; Lane 5) was 67% and the “Derlin-1 knockdown, FIG. 9 Western blot” value (Derlin-1; Lane 6) was 72%.

With `CC1(C)CCC(C)(C)c2cc(C3(c4ccc(C(=O)O)cc4)OCCO3)ccc21` [SR11237, reference compound] the “HLA-E expression of immature MoDC cells” value (HLA-E) was “dramatically induced”, the “HLA-G expression of immature MoDC cells” value (HLA-G [4]) was “little or no effect” and the “HLA G expression in CD8+ T cells” value (HLA-G [5]) was “no further increase”.

NPRKVTAYL (also: biotinylated, position not given here) [biotinylated HLA-A2 leader peptide (SEQ ID NO: 50, …)] was tested, and the OD (the three HLA-E preps [6]) was 0.02 OD, the OD (the three HLA-E preps [7]) was 0.2 OD and > 0.3 OD and the fold increment of OD (against the 0.02 OD at 0.1 µg/ml peptide) (the three HLA-E preps [7]) was 10 fold and 15 fold.
